Laboratory results taken from ChEMBL document CHEMBL3045736, “Cobalt mediated ring contraction reaction of lapachol and initial antibacterial evaluation of naphthoquinones derived from lapachol” (2012).
≈ marks a conversion by molar mass, not a printed value.

Columns and labels:
Format in all cases: functional
[1] = tested on: Mycobacterium tuberculosis; test: Antimycobacterial activity against Mycobacterium tuberculosis by Bactec TB-460 assay
[2] = tested on: Bacillus cereus; test: Antibacterial activity against Bacillus cereus after 24 hr by p-iodonitrotetrazolium assay
[3] = tested on: Staphylococcus aureus; test: Antibacterial activity against Staphylococcus aureus after 24 hr by p-iodonitrotetrazolium assay
[4] = tested on: Escherichia coli; test: Antibacterial activity against Escherichia coli after 24 hr by p-iodonitrotetrazolium assay

Row | Compound | MBC [1] [µM] | MIC [1] [µM] | MIC [2] | MIC [3] | MIC [4]
1 | CC1(C)CCC2=C(O1)c1ccccc1C(=O)C2=O [LAPACHONE] | 80.7 (≈ 19.6 µg/mL) | 20.2 (≈ 4.89 µg/mL) | 161 µM | 161 µM | 161 µM
2 | C=C(C)C1CC2=C(O1)C(=O)c1ccccc1C2=O (stereo not drawn) [DEHYDROISO-ALPHA-LAPACHONE] | 81.4 (≈ 19.6 µg/mL) | 40.7 (≈ 9.77 µg/mL) | > 78.1 mg/L | 326 µM | > 78.1 mg/L
3 | CC(=O)OC=CC1=C(O)C(=O)c2ccccc2C1=O | – | – | > 78.1 mg/L | > 78.1 mg/L | > 78.1 mg/L
4 | NNC(=O)c1ccncc1 [ISONIAZID] | 1.75 (≈ 0.24 µg/mL) | 0.88 (≈ 0.121 µg/mL) | – | – | –
5 | CC(C)=CCC1(O)C(=O)c2ccccc2C1=O | 240 (≈ 55.2 µg/mL) | 120 (≈ 27.6 µg/mL) | > 78.1 mg/L | 240 µM | > 78.1 mg/L
6 | C=C(C)c1cc2c(o1)C(=O)c1ccccc1C2=O | 164 (≈ 39.1 µg/mL) | 41 (≈ 9.77 µg/mL) | > 78.1 mg/L | 328 µM | 328 µM
7 | CC(=O)c1cc2c(o1)C(=O)c1ccccc1C2=O [NAPABUCASIN] | 163 (≈ 39.1 µg/mL) | 40.7 (≈ 9.77 µg/mL) | > 78.1 mg/L | 326 µM | > 78.1 mg/L
8 | O=CCC1=C(O)C(=O)c2ccccc2C1=O | 723 (≈ 156 µg/mL) | 362 (≈ 78.2 µg/mL) | > 78.1 mg/L | > 78.1 mg/L | > 78.1 mg/L
9 | CC(C)=CCC1=C(O)C(=O)c2ccccc2C1=O [LAPACHOL] | 646 (≈ 156 µg/mL) | 161 (≈ 39.1 µg/mL) | > 78.1 mg/L | > 78.1 mg/L | > 78.1 mg/L
10 | CC(C)(O[N+](=O)[O-])C1CC2=C(O1)C(=O)c1ccccc1C2=O (stereo not drawn) | 136 (≈ 41.3 µg/mL) | 34 (≈ 10.3 µg/mL) | > 78.1 mg/L | 272 µM | > 78.1 mg/L
11 | GENTAMICIN | – | – | 3.6 µM | 7.2 µM | 3.6 µM
